Key:
[1] = tested on: human embryonic stem cell derived neural stem cells (NSCs); assay: Neural Stem Cell Proliferation Assay (neurogenesis assay, ATP levels by CellTiterGlo); assay type: cell-based; settings: 96 h, compound concentration at which 150% activity of control (100%) is reached, NSC proliferation by ATP level after 4 days incubation, dose response 8 μM to 8 nM
Experimental: Neurogenic properties of small molecules are determined based on the proliferation of human embryonic stem cell derived neural stem cells (NSCs) which were derived via a dual smad inhibition as previously described (Chambers, S. M., et al., Highly efficient neural conversion of human ES and iPS cells by dual inhibition of SMAD signaling, Nature biotechnology, 2009. 27(3): p. 275-80.)
Compounds respond is measured by the increase in cells based on ATP levels
(Promega:CellTiterGlo®) after an incubation period of 4 days.
NSCs are thawed and expanded over 3 passages. On the 14th day, NSCs are seeded in Polyornithin/Laminin coated 384 well plates at a cell density of 21′000 cells/cm^2 in a media volume of 38 μl.
4 hours after cell seeding, compound solutions are added at a volume of 2 μl. Stock solutions of the compounds (water, 5% DMSO) are diluted to obtain a dose response (11 points, dilution factor is 2), ranging from 8 μM to 8 nM. Controls are run to consistently determine the neurogenic properties of the cells:
Negative (neutral) control is cell culture Media (final DMSO concentration: 0.25%).
• 1. cell culture Media+100 ng/ml FGF2 (final DMSO concentration: 0.1%) • 2. cell culture Media+20 ng/ml EGF (final DMSO concentration: 0.1%) • 3. cell culture Media+100 ng/ml Wnt3a (final DMSO concentration: 0.1%)
After 4 days incubation at 37° C., 5% CO2, the amount of ATP per well is quantified. The ATP concentration is proportional to the cell number. ATP is quantified by using the Promega CellTiterGlo® kit. The CellTiterGlo® reagents contain a cell lysis buffer, a thermo stable luciferase (UltraGlo™ recombinant luciferase), magnesium and luciferin. Luciferin reacts with ATP producing oxyluciferin, AMP and light. The luminescence signal is proportional to the ATP content.
The value of negative (neutral) control is determined for each assay plate by taking the average of 16 negative control wells. The neurogenic compound response is calculated for each compound as (compound/Negative Control)*100.
The values of EC150 from the dose response curve are determined for each test compound. The EC150 is the compound concentration at which 150% activity of control (100%) is reached.

Row | SMILES | melting point | EC (150% of control) [1]
1 | O=C1NCCCn2c1cc1cc(Cl)cc(-c3ccc(Cl)cc3)c12 [Example 53, 9-Chloro-7-(4-chloro-phenyl)-2,3,4,5-tetrahydro-[1,4]diazepino[1,2-a]indol-1-one] | 237 °C | 0.15 µM
2 | COc1ccc(-c2cc(Cl)cc3cc4n(c23)CCCNC4=O)cc1 [Example 54, 9-Chloro-7-(4-methoxy-phenyl)-2,3,4,5-tetrahydro-[1,4]diazepino[1,2-a]indol-1-one] | 218 °C | 0.07 µM
3 | Cc1cc(-c2ccc(F)c(F)c2)c2c(c1)cc1n2CCCNC1=O [Example 55, 7-(3,4-Difluoro-phenyl)-9-methyl-2,3,4,5-tetrahydro-[1,4]diazepino[1,2-a]indol-1-one] | 231 °C | 2.8 µM
4 | COc1ccc(-c2cc(C)cc3cc4n(c23)CCCNC4=O)cc1 [Example 56, 7-(4-Methoxy-phenyl)-9-methyl-2,3,4,5-tetrahydro-[1,4]diazepino[1,2-a]indol-1-one] | 208 °C | 0.35 µM
5 | Cc1cc(-c2ccc(F)cc2)c2c(c1)cc1n2CCCNC1=O [Example 57, 7-(4-Fluoro-phenyl)-9-methyl-2,3,4,5-tetrahydro-[1,4]diazepino[1,2-a]indol-1-one] | 234.5 °C | 1.44 µM
6 | Cc1cc(-c2ccc(Cl)cc2)c2c(c1)cc1n2CCCNC1=O [Example 58, 7-(4-Chloro-phenyl)-9-methyl-2,3,4,5-tetrahydro-[1,4]diazepino[1,2-a]indol-1-one] | 258.5 °C | 1.51 µM
7 | Cc1cc(-c2ccc(F)c(F)c2)c2c(c1)cc1n2CCNC1=O [Example 60, 6-(3,4-Difluoro-phenyl)-8-methyl-3,4-dihydro-2H-pyrazino[1,2-a]indol-1-one] | 249.5 °C | 0.71 µM
8 | COc1ccc(-c2cc(C)cc3cc4n(c23)CCNC4=O)cc1 [Example 61, 6-(4-Methoxy-phenyl)-8-methyl-3,4-dihydro-2H-pyrazino[1,2-a]indol-1-one] | 245 °C | 0.059 µM
9 | Cc1cc(-c2ccc(F)cc2)c2c(c1)cc1n2CCNC1=O [Example 62, 6-(4-Fluoro-phenyl)-8-methyl-3,4-dihydro-2H-pyrazino[1,2-a]indol-1-one] | 257 °C | 0.32 µM
10 | CN1CCn2c(cc3cc(F)cc(-c4ccc(F)cc4)c32)C1=O [Example 63, 8-Fluoro-6-(4-fluoro-phenyl)-2-methyl-3,4-dihydro-2H-pyrazino[1,2-a]indol-1-one] | 212 °C | 0.6 µM
11 | Cc1c2n(c3c(-c4ccc(F)c(F)c4)cc(Cl)cc13)CCNC2=O [Example 64, 8-Chloro-6-(3,4-difluoro-phenyl)-10-methyl-3,4-dihydro-2H-pyrazino[1,2-a]indol-1-one] | 235.5 °C | 0.12 µM
12 | Cc1c2n(c3c(-c4ccc(Cl)cc4)cc(Cl)cc13)CCNC2=O [Example 65, 8-Chloro-6-(4-chloro-phenyl)-10-methyl-3,4-dihydro-2H-pyrazino[1,2-a]indol-1-one] | 236.5 °C | 0.019 µM
13 | Cc1c2n(c3c(-c4ccc(F)cc4)cc(Cl)cc13)CCNC2=O [Example 66, 8-Chloro-6-(4-fluoro-phenyl)-10-methyl-3,4-dihydro-2H-pyrazino[1,2-a]indol-1-one] | 227.5 °C | 0.047 µM
14 | COc1ccc(-c2cc(Cl)cc3c(C)c4n(c23)CCNC4=O)cc1 [Example 67, 8-Chloro-6-(4-methoxy-phenyl)-10-methyl-3,4-dihydro-2H-pyrazino[1,2-a]indol-1-one] | 264 °C | 0.008 µM
15 | Cc1c2n(c3c(-c4ccc(F)cc4)cc(Cl)cc13)CCCNC2=O [Example 70, 9-Chloro-7-(4-fluoro-phenyl)-11-methyl-2,3,4,5-tetrahydro-[1,4]diazepino[1,2-a]indol-1-one] | 260 °C | 0.063 µM
16 | Cc1c2n(c3c(-c4ccc(Cl)cc4)cc(F)cc13)CCNC2=O [Example 73, 6-(4-Chloro-phenyl)-8-fluoro-10-methyl-3,4-dihydro-2H-pyrazino[1,2-a]indol-1-one] | 209.5 °C | 0.017 µM
17 | Cc1c2n(c3c(-c4ccc(F)cc4)cc(F)cc13)CCNC2=O [Example 74, 8-Fluoro-6-(4-fluoro-phenyl)-10-methyl-3,4-dihydro-2H-pyrazino[1,2-a]indol-1-one] | 182 °C | 0.072 µM
18 | N#Cc1cc(-c2ccc(Cl)cc2)c2c(c1)cc1n2CCNC1=O [Example 77, 6-(4-Chloro-phenyl)-1-oxo-1,2,3,4-tetrahydro-pyrazino[1,2-a]indole-8-carbonitrile] | 316.5 °C | 0.02 µM
19 | Cc1c2n(c3c(-c4ccccc4)cc(F)cc13)CCNC2=O [Example 80, 8-Fluoro-10-methyl-6-phenyl-3,4-dihydro-2H-pyrazino[1,2-a]indol-1-one] | 244 °C | 0.098 µM

Now from value to molecule, other results behind:

Row | melting point | SMILES | EC (150% of control) [1]
20 | 269 °C | Cc1cc(-c2ccc(Cl)cc2)c2c(c1)cc1n2CCNC1=O [Example 59, 6-(4-Chloro-phenyl)-8-methyl-3,4-dihydro-2H-pyrazino[1,2-a]indol-1-one] | 0.18 µM
21 | 254 °C | Cc1c2n(c3c(-c4ccc(F)c(F)c4)cc(Cl)cc13)CCCNC2=O [Example 68, 9-Chloro-7-(3,4-difluoro-phenyl)-11-methyl-2,3,4,5-tetrahydro-[1,4]diazepino[1,2-a]indol-1-one] | 0.12 µM
22 | 271 °C | Cc1c2n(c3c(-c4ccc(Cl)cc4)cc(Cl)cc13)CCCNC2=O [Example 69, 9-Chloro-7-(4-chloro-phenyl)-11-methyl-2,3,4,5-tetrahydro-[1,4]diazepino[1,2-a]indol-1-one] | 0.061 µM
23 | 240.5 °C | COc1ccc(-c2cc(Cl)cc3c(C)c4n(c23)CCCNC4=O)cc1 [Example 71, 9-Chloro-7-(4-methoxy-phenyl)-11-methyl-2,3,4,5-tetrahydro-[1,4]diazepino[1,2-a]indol-1-one] | 0.021 µM
24 | 229.5 °C | Cc1c2n(c3c(-c4ccc(F)c(F)c4)cc(F)cc13)CCNC2=O [Example 72, 6-(3,4-Difluoro-phenyl)-8-fluoro-10-methyl-3,4-dihydro-2H-pyrazino[1,2-a]indol-1-one] | 0.12 µM
25 | 237 °C | COc1ccc(-c2cc(F)cc3c(C)c4n(c23)CCNC4=O)cc1 [Example 75, 8-Fluoro-6-(4-methoxy-phenyl)-10-methyl-3,4-dihydro-2H-pyrazino[1,2-a]indol-1-one] | 0.005 µM
26 | 289.5 °C | N#Cc1cc(-c2ccc(F)c(F)c2)c2c(c1)cc1n2CCNC1=O [Example 76, 6-(3,4-Difluoro-phenyl)-1-oxo-1,2,3,4-tetrahydro-pyrazino[1,2-a]indole-8-carbonitrile] | 0.02 µM
27 | 297.5 °C | N#Cc1cc(-c2ccc(F)cc2)c2c(c1)cc1n2CCNC1=O [Example 78, 6-(4-Fluoro-phenyl)-1-oxo-1,2,3,4-tetrahydro-pyrazino[1,2-a]indole-8-carbonitrile] | 0.012 µM
28 | 278.5 °C | COc1ccc(-c2cc(C#N)cc3cc4n(c23)CCNC4=O)cc1 [Example 79, 6-(4-Methoxy-phenyl)-1-oxo-1,2,3,4-tetrahydro-pyrazino[1,2-a]indole-8-carbonitrile] | 0.004 µM
29 | 226 °C | Cc1ccc(-c2cc(F)cc3c(C)c4n(c23)CCNC4=O)cc1 [Example 81, 8-Fluoro-10-methyl-6-p-tolyl-3,4-dihydro-2H-pyrazino[1,2-a]indol-1-one] | 0.014 µM
30 | 269.5 °C | Cc1c2n(c3c(-c4ccc(C(F)(F)F)cc4)cc(F)cc13)CCNC2=O [Example 82, 8-Fluoro-10-methyl-6-(4-trifluoromethyl-phenyl)-3,4-dihydro-2H-pyrazino[1,2-a]indol-1-one] | 0.036 µM
31 | 290 °C | Cc1c2n(c3c(-c4ccncc4)cc(F)cc13)CCNC2=O [Example 83, 8-Fluoro-10-methyl-6-pyridin-4-yl-3,4-dihydro-2H-pyrazino[1,2-a]indol-1-one] | 0.039 µM

— patent US9284321B2, “Piperazino[1,2-a]indol-1-ones and [1,4]diazepino[1,2-a]indol-1-one” (Hoffmann-La Roche Inc., priority 2012, dated 2016)
